The structures appear in SMILES notation. Several values for one entry are separate records, joined by “and”; a condition that tells them apart may be missing. Identical values can stand only once. Counter-ions that a name gives are not always drawn.

For orientation: melting point means the temperature of the solid-liquid transition. `CC(C)(C)c1cccc(O)c1` [3-tert-butylphenol] had a melting point of 45 °C. The figure for `O=c1[nH]c2ccccc2n1CCCN1CCC(n2c(=O)[nH]c3cc(Cl)ccc32)CC1` [Domperidone] is 242 °C.

Take `Nc1ccc(-c2cccs2)cc1` [4-(2-thienyl)aniline]: the melting point is 76 °C.

`O=C(O)/C=C/c1ccc(B(O)O)cc1` [4-(2-carboxyvinyl)benzeneboronic acid]: the melting point was determined as 193 °C.

`O=C(O)CSCC(=O)NC1CCSC1=O` (configuration not stated) [erdosteine] yielded a melting point of 156 °C. The figure for `COC(=O)c1ccc(OC)cc1O` [methyl 2-hydroxy-4-methoxybenzoate] is 48 °C; for `COc1ccc(Nc2ccc(OC)cc2)cc1` [4,4'-dimethoxydiphenylamine] it is 102 °C; for `CCCCCCCBr` [1-bromoheptane] it is -56 °C. `Clc1ccccc1C(c1ccccc1)(c1ccccc1)n1ccnc1` [clotrimazole]: the melting point was 147 °C.

Turning to `C[C@]12CCC(=O)C=C1CC[C@@H]1[C@@H]2CC[C@]2(C)C(=O)CC[C@@]12O` [14-hydroxyandrost-4-ene-3,17-dione], the melting point worked out at 258 °C.

The molecule `CC(=O)Nc1ccccc1O` [2-acetamidophenol] yielded a melting point of 208 °C. In the case of `OC(c1ccccc1)(c1ccccc1)C(O)(c1ccccc1)c1ccccc1` [benzopinacol] it was 177 °C. Molecule `c1ccc2c(P(c3cccc4ccccc34)c3cccc4ccccc34)cccc2c1` [tri(1-naphthyl)phosphine] came in with a melting point of 267 °C.

`O=[N+]([O-])c1ccco1` [2-Nitrofuran] came in with a melting point of 31 °C. In the case of `Cn1c(=O)c2[nH]cnc2n(C)c1=O` [theophylline] it was 270 °C. As to `CCCC1C(=O)N2C(N(C)C)=Nc3ccc(C)cc3N2C1=O` (configuration not stated) [apazone], the melting point was 228 °C. Take `O=C(O)/C(=C/c1ccccc1[N+](=O)[O-])c1ccccc1` [(E)-2-phenyl-3-(2-nitrophenyl)propenoic acid]: the melting point was determined as 198 °C. `NC(CO)Cc1ccccc1` (single isomer, unassigned; (-)) [(-)-2-amino-3-phenyl-1-propanol] gave a melting point of 92 °C. With `COc1ccc(-c2csc(C(C#N)=Cc3ccc(O)cc3)n2)cc1`, the melting point turned out to be 186 °C. The molecule `CC12CCC(=O)CC1CCC1C2CCC2(C)C(OC=O)CCC12` (configuration not stated) [3-oxoandrostan-17-yl formate] gave a melting point of 125 °C. In the case of `Oc1c(F)cc(F)cc1F` [2,4,6-trifluorophenol], the melting point was found to be 50 °C. On to `CC(C)(C)OC(=O)/N=N/C(=O)OC(C)(C)C` [di-tert-butyl azodicarboxylate], for which the melting point is 91 °C. In turn, `CC(=O)Oc1ccc(C(N)=O)cc1` [p-acetoxybenzamide] had a melting point of 179 °C. Regarding `CCN(CC)CC` [N,N-Diethylethanamine], the melting point was -115 °C. The molecule `Cc1ccccc1CP(=O)(O)O` [2-methylbenzylphosphonic acid] displayed a melting point of 186 °C. The figure for `CCSC(SCC)C(O)C(O)C(O)C(O)CO` (configuration not stated) [6,6-di(ethylthio)hexane-1,2,3,4,5-pentaol] is 128 °C; for `COC(=O)CCC(C)C1CCC2C3C(OC(C)=O)C(Br)C4CCCCC4(C)C3CCC12C` (configuration not stated) [methyl 7-(acetyloxy)-6-bromocholan-24-oate] it is 159 °C; for `Cc1c(N=C=O)cccc1N=C=O` [toluene-2,6-diisocyanate] it is 13 °C. In turn, `c1ccc2c(c1)CC1(OCCO1)c1ccccc1CC21OCCO1` displayed a melting point of 144 °C. `CC(C)(N)CO` [2-amino-2-methyl-1-propanol] registered a melting point of 26 °C.

`CCOC(=O)c1c(O)cc(C)nc1O` [ethyl 2,4-dihydroxy-6-methylnicotinate] yielded a melting point of 212 °C. In turn, `O=C(O)Cc1cccc([N+](=O)[O-])c1` [3-nitrophenylacetic acid] displayed a melting point of 119 °C.

For the molecule `NNC(=O)c1ccc(Br)cc1` [4-bromobenzhydrazide], the melting point came to 168 °C. In the case of `O=C1CCCCCCC1` [cyclooctanone] it was 40 °C; in that of `CCCCc1ccc(NC(=O)c2ccc(OC)cc2)cc1` [benzamide, N-(4-butylphenyl)-4-methoxy-], 147 °C; in that of `COc1ccc(C(C)(C)C)cc1C(=O)O` [5-tert-butyl-2-methoxybenzoic acid], 75 °C. The figure for `C[C@]12CC[C@@H]3c4ccc(O)cc4CC[C@H]3[C@@H]1CC[C@@H]2O` [estradiol] is 176 °C and 178 °C; for `C=CCc1ccccc1OCC(O)CNC(C)C` (configuration not stated) [alprenolol] it is 109 °C; for `COc1ccc(CCN2CCC(Nc3nc4ccccc4n3Cc3ccc(F)cc3)CC2)cc1` [Astemizole] it is 149 °C. `CC(=O)OCC1=C(C(=O)O)N2C(=O)[C@@H](NC(=O)Cc3cccs3)[C@H]2SC1` [Cefalotin]: the melting point was 160 °C. `C#CC(C)(C)C` [3,3-Dimethylbut-1-yne]: the melting point is -78 °C.

Regarding `COC(=O)/C=C/C(=O)OC` [dimethyl fumarate], the melting point came to 104 °C. In the case of `CCCC(C)(COC(N)=O)COC(N)=O` [Sowell] it was 104 °C. Consider `O=[N+]([O-])c1cc([N+](=O)[O-])c(C2CO2)cc1C1CO1` (configuration not stated) [2,2'-(4,6-dinitrobenzene-1,3-diyl)dioxirane], for which the melting point stood at 154 °C. The figure for `Cc1nn(C)c(C)c1C=O` [1,3,5-trimethyl-1h-pyrazole-4-carboxaldehyde] is 82 °C.

In turn, `Cc1cc(C)c(CC#N)c(C)c1` [mesitylacetonitrile] showed a melting point of 79 °C. `CC(=O)Cl` [acetyl_chloride] registered a melting point of -112 °C. In turn, `CCOC(=O)c1cc(C)nn1C(=O)OCC` [diethyl 3-methyl-1H-pyrazole-1,5-dicarboxylate] registered a melting point of 81 °C.

Molecule `O=C=Nc1cccc2ccccc12` [1-naphthyl isocyanate] gave a melting point of 4 °C. The molecule `O=C(O)CCc1ccccc1` [3-phenylpropanoic_acid] came in with a melting point of 49 °C. Turning to `COC(=O)c1ccc(I)cc1` [methyl 4-iodobenzoate], the melting point came to 115 °C. As for `Cc1ccc(C(=O)O)cc1F` [3-fluoro-4-methylbenzoic acid], the melting point worked out at 170 °C. In the case of `CC(=O)c1ccccc1N` [o-aminoacetophenone], the melting point was determined as 20 °C. Molecule `O=S(=O)(Cl)c1ccc(F)cc1` [4-fluorobenzenesulfonyl chloride] gave a melting point of 37 °C. Molecule `OB(O)c1cccc(OC(F)(F)F)c1` [3-(trifluoromethoxy)benzeneboronic acid] returned a melting point of 80 °C. The figure for `N#CCOc1ccc(Cl)cc1Cl` [2,4-dichlorophenoxyacetonitrile] is 47 °C; for `CCOC(C)(C)C` [tert-butyl ethyl ether] it is -94 °C; for `O=[N+]([O-])c1c(Cl)c(Cl)cc(Cl)c1Cl` [2,3,5,6-tetrachloro-nitrobenzene] it is 99.5 °C. In the case of `CCC(C)=O` [2-butanone], the melting point was -86 °C. In the case of `O=[N+]([O-])c1ccc(Cl)cc1` [1-Chloro-4-nitrobenzene], the melting point is 83.6 °C. Regarding `CCCCCCCl` [1-Chlorohexane], the melting point was -94 °C. On to `Cl/C=C/Cl` [trans-1,2-dichloroethylene], for which the melting point was -50 °C. On to `Oc1ccccc1Br` [2-bromophenol], for which the melting point is 5 °C.

In turn, `CC(C)(C)c1ccc(C2CCC3(CC2)Cc2ccc(C(=O)Nc4ccccc4OCCCC(=O)O)cc2C3)cc1` (configuration not stated) returned a melting point of 147 °C. The figure for `Cc1cc(O)ccc1O` [2-methylhydroquinone] is 129 °C; for `Cc1cc(C)c(CC(=O)O)c(C)c1` [mesitylacetic acid] it is 169 °C; for `CC12CCC(/C(=C/Nc3ccccc3)C1=O)C2(C)C` (configuration not stated) it is 166 °C. Turning to `Cc1n[nH]c(=O)[nH]c1=O` [6-azathymine], the melting point is 213 °C. On to `COc1ccc2c(c1)C(O)OC2=O` (configuration not stated) [3-hydroxy-5-methoxy-2-benzofuran-1(3H)-one], for which the melting point came out at 137 °C. `Cl/C(Cl)=C/C3C(C(=O)OC(C#N)c2cccc(Oc1ccccc1)c2)C3(C)C` (configuration not stated): the melting point was 68.5 °C. Molecule `COc1cc(C(=O)NCCCCCC(=O)O)cc(OC)c1OC` [capobenicacid] had a melting point of 121 °C. `ClC(Cl)C(Cl)Cl` [1,1,2,2-Tetrachloroethane] came in with a melting point of -43 °C.

In turn, `O=C(O)c1cc(C(=O)O)cc(C(=O)O)c1` [1,3,5-benzenetricarboxylic acid] registered a melting point of 375 °C. The molecule `OB(O)c1ccnc(Cl)c1Cl` [2,3-dichloropyridine-4-boronic acid] yielded a melting point of 137 °C.

Consider `Cc1ccc(O)c(Br)c1` [2-bromo-4-methylphenol], for which the melting point was 16 °C.

For `NCc1ccccn1` [2-(aminomethyl)pyridine], the melting point is -20 °C.

For `ClC1/C=C\C2C3(Cl)C(\Cl)=C(\Cl)C(Cl)(C12)C3(Cl)Cl` (configuration not stated) [heptachlor], the melting point is 95 °C and 95.5 °C. `c1ccc2c(c1)Cc1ccccc1-2` [fluorene] gave a melting point of 116 °C. Molecule `CCCOCCO` [2-Propoxyethanol] showed a melting point of -75 °C. In turn, `CCCCNC(=O)NCCCC` [N,N'-di-n-butylurea] displayed a melting point of 72 °C. Regarding `CCOC(=O)c1ccc(O)cc1` [ethyl 4-hydroxybenzoate], the melting point worked out at 117 °C. The figure for `COc1ccc(C(=O)O)cc1OC` [3,4-dimethoxybenzoic acid] is 181 °C; for `O=c1[nH][nH]c(=O)n1-c1ccccc1` [4-phenylurazole] it is 208 °C; for `C(=C/P(=O)(O)O)P(=O)(O)O` [1,2-ethylenediphosphonic acid] it is 219 °C. On to `C=CCO` [Prop-2-en-1-ol], for which the melting point was -129 °C. The figure for `COc1ccc(C(=O)Cl)cc1` [4-Methoxybenzoyl chloride] is 22 °C; for `C=C[C@H]1CN2CC[C@H]1C[C@H]2[C@H](O)c1ccnc2ccc(OC)cc12` [quinine] it is 176 °C and 174 °C.

The values above are taken from the Bradley open melting point set (2014).
